Measured values as given in US7358390B2, “Polymorphic forms of nateglinide” (Teva Pharmaceutical Industries Ltd., priority 2002, dated 2008).
Entries after “also recorded” stand apart in the source; their conditions may differ. Blank lines part the entries; values can stand above or below the compound they belong to.

How the values were obtained:
[1] = Thermal stability: transformation of crystalline forms on heating or drying, form checked by XRPD; assay type: physicochemical; conditions: for crystal form obtained upon drying/heating: heating under ambient or reduced pressure, generally about 40-80° C.
Procedure: The various crystalline forms are related to each other in that drying of one form may result in a transformation to another form, namely nateglinide Forms A, B, D, E, F, G, H, I, J, K, L, M, N, Q, S, T, V, Z, α, β, δ, γ, ε, θ and Ω. The drying is carried out by heating a sample under ambient or reduced pressure. Generally, a preferred temperature is from about 40° C. to about 80° C., more preferably under reduced pressure. […] The term “stable” as used herein refers to a polymorphic change of less than about 5% by weight, more preferably less than about 2%, particularly for Form δ.
(§1) X-Ray diffraction was performed on X-Ray powder diffractometer, Scintag®, variable goniometer, Cu-tube, solid state detector. Sample holder: A round standard aluminum sample holder with round zero background quartz plate.
(§2) The sample was put on the sample holder and immediately analyzed as is. • Scanning parameters: Range: 2-40 deg 2θ, Continuos Scan, Rate: 3 deg./min. DSC: • DSC821^e Mettler Toledo®, Sample weight: 3-5 mg, Heating rate: 10° C./min, Number of holes in the crucible: 3 TGA: • Mettler TG50®, Sample weight: 7-15 mg, Heating rate: 10° C./min FTIR: • Perkin-Elmer®, Spectrum One FTIR spectrometer, Range: 4000-400 cm−1, no. of scans: 16, resolution: 4.0 cm−1, DRIFT technique.
Nateglinide Form delta (10 grams), with about 3% heptane (wt/wt), was dried in a fluidized bed drier for 4 hours at 60° C. Residual heptane was 1578 ppm af. Ethyl acetate is under detection limit. Polymorphic form of the dry product is delta.
Sample of nateglinide form U (˜1 g) was introduced into a 6-gram vial and heated over 8.5 h in a 100° C. oil bath. The vial were extracted from the bath.
Sample of nateglinide form U (˜0.5 g) was heated to 120° C. for 1 h in an atmospheric pressure.
Sample of nateglinide form δ (˜0.5 g) was heated to 120° C. for 1 h in an atmospheric pressure.
The product of example 11 was dried at 50° C. in a vacuum oven overnight, and analyzed by XRD.
Nateglinide (40 grams) Form delta (1.5% heptane) was dried in a stirred reactor (7-10 rpm) under 60 mmHg vacuum and at 60° C. After 6 hours of drying, the residual solvent of the material was 613 ppm of heptane.

[2] = Storage of crystalline forms at room temperature, form checked by XRPD; assay type: physicochemical; conditions: for crystal form after storage at RT: room temperature and pressure, open bottle, 24 h (about a day)
Procedure: The various crystalline forms are also analyzed by Thermal Gravimetric Analysis (TGA). […] In contrast to the above listed forms, TGA profiles of forms L, P, U, α, δ and σ show no significant weight loss. These polymorphic forms of nateglinide are free of bound solvents, i.e., less than about 2% LOD. Table III lists the solvents used for the preparation for nateglinide solvated forms, as well as LOD values based on TGA analysis.
Storage at room temperature and pressure may also cause a transition of one form to another.
as §1, §2

[3] = second endotherm at 138.2° C. after grinding; cited from earlier work
[4] = Exposure of NTG Form H to solvent vapors; assay type: physicochemical; conditions: 4 d, room temperature
Procedure: Nateglinide (3.50 g) was added to a polypropylene can and weighed. The can was introduced into a bigger polypropylene container containing a solvent, and stored at room temperature. The can was removed from the container and weighed (Wfinal). The can content was divided into 2 portions. One portion was dried at a temperature of 55° C. and a pressure of 20-30 mmHg to constant weight (±0.01 g).

[5] = Stability at about 40° C. and about 75% relative humidity; assay type: physicochemical; conditions: about 40° C., about 75% relative humidity, at least about 3 months
Procedure: Crystalline Form δ is stable at a temperature of about 40° C. and a relative humidity of about 75% for at least about 3 months.

[6] = 120° C., 1 h, atmospheric pressure

SMILES: CC(C)[C@H]1CC[C@H](C(=O)N[C@H](Cc2ccccc2)C(=O)O)CC1 [Form A, nateglinide]
crystal form obtained upon drying/heating [1]: convert to Form B
crystal form after storage at RT [2]: partially converts to Form B
crystal form after storage at RT ([2]; listed as A): conversion to Form B

SMILES: CC(C)[C@H]1CC[C@H](C(=O)N[C@H](Cc2ccccc2)C(=O)O)CC1 [Form B, nateglinide]
stability during grinding (DSC) [3]: unstable and susceptible to change

SMILES: CC(C)[C@H]1CC[C@H](C(=O)N[C@H](Cc2ccccc2)C(=O)O)CC1 [Form C, nateglinide]
crystal form obtained upon drying/heating [1]: convert to Form B; also recorded: Form B or α

SMILES: CC(C)[C@H]1CC[C@H](C(=O)N[C@H](Cc2ccccc2)C(=O)O)CC1 [Form E, nateglinide]
crystal form obtained upon drying/heating [1]: convert to Form B

SMILES: CC(C)[C@H]1CC[C@H](C(=O)N[C@H](Cc2ccccc2)C(=O)O)CC1 [Form F, nateglinide]
crystal form obtained upon drying/heating [1]: convert to Form B; also recorded: a mixture of Form B and G

SMILES: CC(C)[C@H]1CC[C@H](C(=O)N[C@H](Cc2ccccc2)C(=O)O)CC1 [Form G, nateglinide]
crystal form obtained upon drying/heating [1]: convert to Form B

SMILES: CC(C)[C@H]1CC[C@H](C(=O)N[C@H](Cc2ccccc2)C(=O)O)CC1 [Form H, nateglinide]
Form wet after exposure to solvent vapors ([4]; Acetone vapors): stable
Form wet after exposure to solvent vapors ([4]; Water vapors): stable

SMILES: CC(C)[C@H]1CC[C@H](C(=O)N[C@H](Cc2ccccc2)C(=O)O)CC1 [Form I, nateglinide]
crystal form after storage at RT [2]: converts to Form L
crystal form after storage at RT ([2]; listed as I): Form L

SMILES: CC(C)[C@H]1CC[C@H](C(=O)N[C@H](Cc2ccccc2)C(=O)O)CC1 [Form J, nateglinide]
crystal form obtained upon drying/heating [1]: convert to Form B; also recorded: Form B or β
XRD pattern after storage at RT ([2]; RT, overnight): changed after storage at RT

SMILES: CC(C)[C@H]1CC[C@H](C(=O)N[C@H](Cc2ccccc2)C(=O)O)CC1 [Form M, nateglinide]
crystal form obtained upon drying/heating [1]: Form L

SMILES: CC(C)[C@H]1CC[C@H](C(=O)N[C@H](Cc2ccccc2)C(=O)O)CC1 [Form N, nateglinide]
crystal form obtained upon drying/heating [1]: Form L

SMILES: CC(C)[C@H]1CC[C@H](C(=O)N[C@H](Cc2ccccc2)C(=O)O)CC1 [Form Q, nateglinide]
crystal form obtained upon drying/heating [1]: convert to Form B
crystal form after storage at RT [2]: converts to Form Y
crystal form after storage at RT ([2]; listed as Q): Form Y, which contains

The next lines start with results.

crystal form after storage at RT [2]: converts to Form E
crystal form after storage at RT ([2]; listed as T): Form E
SMILES: CC(C)[C@H]1CC[C@H](C(=O)N[C@H](Cc2ccccc2)C(=O)O)CC1 [Form T, nateglinide]
crystal form obtained upon drying/heating [1]: convert to Form B; also recorded: a mixture of Form B and G

crystal form after heating (XRPD) [1, 6]: Form U
crystal form after heating (XRPD) ([1]; about 100° C. oil bath, 8.5 h): does not undergo a transition
crystal form after heating (XRPD) ([1]; about 100° C. oil bath, 8.5 h, listed as form U): Form U
SMILES: CC(C)[C@H]1CC[C@H](C(=O)N[C@H](Cc2ccccc2)C(=O)O)CC1 [Form U, nateglinide]

crystal form obtained upon drying/heating [1]: Form H
SMILES: CC(C)[C@H]1CC[C@H](C(=O)N[C@H](Cc2ccccc2)C(=O)O)CC1 [Form V, nateglinide]

crystal form obtained upon drying/heating [1]: convert to Form B
SMILES: CC(C)[C@H]1CC[C@H](C(=O)N[C@H](Cc2ccccc2)C(=O)O)CC1 [Form Z, nateglinide]

crystal form after drying (XRD) ([1]; 50° C., vacuum oven, overnight): mixture of Form omega and Form Z
crystal form obtained upon drying/heating [1]: convert to Form B
SMILES: CC(C)[C@H]1CC[C@H](C(=O)N[C@H](Cc2ccccc2)C(=O)O)CC1 [Form Ω, nateglinide]

crystal form obtained upon drying/heating [1]: convert to Form B
SMILES: CC(C)[C@H]1CC[C@H](C(=O)N[C@H](Cc2ccccc2)C(=O)O)CC1 [Form β, nateglinide]

stability when heated ([1]; 60° C. overnight (at least about 8 hours)): stable
crystal form after heating (XRPD) [1, 6]: Form B
crystal form after heating (XRPD) ([1]; 120° C., 1 h, atmospheric pressure, listed as form δ): Form B
polymorphic form after drying ([1]; fluidized bed drier, 4 hours, 60° C.): delta
crystal form obtained upon drying/heating [1]: convert to Form B
polymorph after drying ([1]; stirred reactor (7-10 rpm), 60 mmHg vacuum, 60° C., 6 hours): remained delta form
stability on storage [5]: stable
SMILES: CC(C)[C@H]1CC[C@H](C(=O)N[C@H](Cc2ccccc2)C(=O)O)CC1 [Form δ, nateglinide]

crystal form obtained upon drying/heating [1]: Form H
SMILES: CC(C)[C@H]1CC[C@H](C(=O)N[C@H](Cc2ccccc2)C(=O)O)CC1 [Form ε, nateglinide]

crystal form obtained upon drying/heating [1]: convert to Form B
SMILES: CC(C)[C@H]1CC[C@H](C(=O)N[C@H](Cc2ccccc2)C(=O)O)CC1 [Form θ, nateglinide]

crystal form obtained upon drying/heating [1]: Form B
SMILES: CC(C)[C@H]1CC[C@H](C(=O)N[C@H](Cc2ccccc2)C(=O)O)CC1 [acetonitrile solvate of Form Epsilon, nateglinide]

crystal form obtained upon drying/heating [1]: Forms H or P
SMILES: CC(C)[C@H]1CC[C@H](C(=O)N[C@H](Cc2ccccc2)C(=O)O)CC1 [nitromethane solvates of Form Epsilon, nateglinide]
